Experimental data as given in patent publication US8741897B2, “Glucocorticoid mimetics, methods of making them, pharmaceutical compositions and uses thereof” (Boehringer Ingelheim Pharmaceuticals Inc., priority 2003, dated 2014).

system: glucocorticoid receptor function; experiment: one or more of the above assays (GR binding and glucocorticoid receptor cell assays: aromatase, IL-6, TAT, MMTV-Luc, IL-8, ICAM-Luc); assay type: cell-based; settings: assay not specified per compound
Method: B. Glucocorticoid Receptor Cell Assays
1. Induction of Aromatase in Fibroblasts (Cell Assay for Transactivation)
Dexamethasone, a synthetic ligand to the glucocorticoid receptor (GR), induces expression of aromatase in human foreskin fibroblast cells. The activity of aromatase is measured by the conversion of testosterone to estradiol in culture media.
On the day of the experiment, the media in the wells is replaced with fresh media. Cells are treated with test compounds to final concentrations of 10^−5 M to 10^−8 M, and testosterone to a final concentration of 300 ng/mL. Each well has a total volume of 100 μL. Samples are made in duplicates. Control wells include: (a) wells that receive testosterone only, and (b) wells that receive testosterone plus 2 μM of dexamethasone to provide maximum induction of aromatase. Plates are incubated at 37° C. overnight (15 to 18 hours), and supernatants are harvested at the end of incubation. […] The amount of estradiol is inversely proportional to the ELISA signals in each well. The extent of aromatase induction by test compounds is expressed as a relative percentage to dexamethasone. EC50 values of test compounds are derived by non-linear curve fitting.
2. Inhibition of IL-6 Production in Fibroblasts (Cell Assay for Transrepression)
Human foreskin fibroblast cells produce IL-6 in response to stimulation by proinflammatory cytokine IL-1.
On the next day, media in the wells is replaced with fresh media. Cells are treated with IL-1 (rhIL-1α, R&D Systems Cat. No. 200-LA) to a final concentration of 1 ng/mL, and with test compounds to final concentrations of 10^−5 M to 10^−8 M, in a total volume of 200 μL per well. Samples are done in duplicates. […] Positive control wells receive IL-1 only and represent maximum (or 100%) amount of IL-6 production. Plates are incubated at 37° C. overnight (15 to 18 hours), and supernatants are harvested at the end of incubation. IL-6 levels in the supernatants are determined by the ELISA kits for IL-6 (MedSystems Diagnostics GmbH, Vienna, Austria, Cat. No. BMS213TEN) according to manufacture's instructions. The extent of inhibition of IL-6 by test compounds is expressed in percentage relative to positive controls. IC50 values of test compounds are derived by non-linear curve fitting.
Evaluation of agonist or antagonist activity of compounds binding to the glucocorticoid receptor may be determined by any of the assays.
3. Modulation of Tyrosine Aminotransferase (TAT) Induction in Rat Hepatoma Cells
Testing of compounds for agonist or antagonist activity in induction of tyrosine aminotransferase (TAT) in rat hepatoma cells.
H4-II-E-C3 cells were incubated overnight in 96 well plates (20,000 cells/100 μL/well) in MEM medium containing 10% heat inactivated FBS and 1% nonessential amino acids. On the next day, cells were stimulated with the indicated concentrations of dexamethasone or test compound (dissolved in DMSO, final DMSO concentration 0.2%) for 18 hours. Control cells were treated with 0.2% DMSO. After 18 hours, the cells were lysed in a buffer containing 0.1% Triton X-100 and the TAT activity was measured in a photometric assay using tyrosine and alpha-ketoglutarate as substrates.
For measuring antagonist activity, the hepatoma cells were pre-stimulated by addition of dexamethasone (concentration ranges from 3×10^−9 M to 3×10^−8 M) shortly before the test compound was applied to the cells.
4. Modulation of MMTV-Luc Induction in HeLa Cells
Testing of compounds for agonist or antagonist activity in stimulation of MMTV-(mouse mammary tumor virus) promoter in HeLa cells.
Cells were cultured overnight in DMEM medium without phenol red, supplemented with 3% CCS (charcoal treated calf serum) and then transferred to 96 well plates (15,000 cells/100 μL/well).

Compound | activity as agonists of the glucocorticoid receptor function in one or more of the above assays
CC(C)(CC(O)(Cc1cc2nc(-c3ccccc3)ncc2[nH]1)C(F)(F)F)c1cc(Cl)cc2c1OCC2 (centres unmarked) [4-(5-Chloro-2,3-dihydrobenzofuran-7-yl)-1,1,1-trifluoro-4-methyl-2-(2-phenyl-5H-pyrrolo[3,2-d]pyrimidin-6-ylmethyl)pentan-2-ol] | potent agonists
CN(C)c1cc2cc(CC(O)(CC(C)(C)c3ccc(F)cc3O)C(F)(F)F)[nH]c2cn1 (centres unmarked) [2-[3-(5-Dimethylamino-1H-pyrrolo[2,3-c]pyridin-2-ylmethyl)-4,4,4-trifluoro-3-hydroxy-1,1-dimethylbutyl]-5-fluorophenol] | potent agonists
CC(C)(CC(O)(Cc1cc2cc(C#N)ccc2[nH]1)C(F)(F)F)c1cc(S(C)(=O)=O)cc2c1OCC2 (centres unmarked) [2-[2-Hydroxy-4-(5-methanesulfonyl-2,3-dihydrobenzofuran-7-yl)-4-methyl-2-trifluoromethylpentyl]-1H-indole-5-carbonitrile] | potent agonists
4-Pyrimidin-5-yl-2-[4,4,4-trifluoro-3-hydroxy-1,1-dimethyl-3-(1H-pyrrolo[2,3-c]pyridin-ylmethyl)butyl]phenol | potent agonists
CC(C)(CC(O)(Cn1ccc2c1CCCC2=O)C(F)(F)F)c1cccc2c1OCC2 (centres unmarked) [1-[4-(2,3-Dihydrobenzofuran-7-yl)-2-hydroxy-4-methyl-2-trifluoromethylpentyl]-1,5,6,7-tetrahydroindol-4-one] | agonists
COc1ccc(-c2cccnc2)cc1C(C)(C)CC(O)(Cn1ccc2c1CCCC2=O)C(F)(F)F (centres unmarked) [1-[2-Hydroxy-4-(2-methoxy-5-pyridin-3-ylphenyl)-4-methyl-2-trifluoromethylpentyl]-1,5,6,7-tetrahydroindol-4-one] | agonists
COc1ccc(-c2ccccc2)cc1C(C)(C)CC(O)(Cc1cc2ccncc2[nH]1)C(F)(F)F (centres unmarked) [1,1,1-Trifluoro-4-(4-methoxybiphenyl-3-yl)-4-methyl-2-(1H-pyrrolo[2,3-c]pyridin-2-ylmethyl)pentan-2-ol] | potent agonists
COc1ccc(-c2ccccc2C#N)cc1C(C)(C)CC(O)(Cc1cc2cc(N3CCCCC3)ncc2[nH]1)C(F)(F)F (centres unmarked) [4′-Methoxy-3′-[4,4,4-trifluoro-3-hydroxy-1,1-dimethyl-3-(5-piperidin-1-yl-1H-pyrrolo[2,3-c]pyridin-2-ylmethyl)butyl]biphenyl-2-carbonitrile] | potent agonists
COc1ccc(F)cc1C(C)(C)CC(O)(Cc1cc2ccncc2[nH]1)C(C)C (centres unmarked) [5-(5-Fluoro-2-methoxyphenyl)-2,5-dimethyl-3-(1H-pyrrolo[2,3-c]pyridin-2-ylmethyl)hexan-3-ol] | agonists
CC(C)(CC(O)(Cc1cc2nc(N3CCCC3)ncc2[nH]1)C(F)(F)F)c1cc(Cl)cc2c1OCC2 (centres unmarked) [4-(5-Chloro-2,3-dihydrobenzofuran-7-yl)-1,1,1-trifluoro-4-methyl-2-(2-pyrrolidin-1-yl-5H-pyrrolo[3,2-d]pyrimidin-6-ylmethyl)pentan-2-ol] | potent agonists
Cc1c(CC(O)(CC(C)(C)c2cccc(F)c2)C(F)(F)F)[nH]c2cnccc12 (centres unmarked) [1,1,1-Trifluoro-4-(3-fluorophenyl)-4-methyl-2-(3-methyl-1H-pyrrolo[2,3-c]pyridin-2-ylmethyl)pentan-2-ol] | potent agonists
Cc1ccc(F)cc1C(C)(C)CC(O)(Cc1cc2cnccc2[nH]1)C1CC1 (centres unmarked) [2-Cyclopropyl-4-(5-fluoro-2-methylphenyl)-4-methyl-1-(1H-pyrrolo[3,2-c]pyridin-2-yl)pentan-2-ol] | agonists
COc1ccc(Br)cc1C(C)(C)CC(O)(Cc1cc2cc(N3CCOCC3)ncc2[nH]1)C(F)(F)F (centres unmarked) [4-(5-Bromo-2-methoxyphenyl)-1,1,1-trifluoro-4-methyl-2-(5-morpholin-4-yl-1H-pyrrolo[2,3-c]pyridin-2-ylmethyl)pentan-2-ol] | potent agonists
CC(C)(CC(O)(Cc1cc2cc(-c3ccncc3)ccc2[nH]1)C(F)(F)F)c1cc(F)cc2c1OCC2 (centres unmarked) [1,1,1-Trifluoro-4-(5-fluoro-2,3-dihydrobenzofuran-7-yl)-4-methyl-2-(5-pyridin-4-yl-1H-indol-2-ylmethyl)pentan-2-ol] | potent agonists
CC(C)(CC(O)(Cc1cc2cc(-c3ccccc3)nnc2[nH]1)C(F)(F)F)c1ccccc1 (centres unmarked) [1,1,1-Trifluoro-4-methyl-4-phenyl-2-(3-phenyl-7H-pyrrolo[2,3-c]pyridazin-6-ylmethyl)pentan-2-ol] | potent agonists
CC(C)Oc1cc2cc(CC(O)(CC(C)(C)c3ccccc3)C(F)(F)F)[nH]c2cn1 (centres unmarked) [1,1,1-Trifluoro-2-(5-isopropoxy-1H-pyrrolo[2,3-c]pyridin-2-ylmethyl)-4-methyl-4-phenylpentan-2-ol] | potent agonists
COc1ccc(F)cc1C(C)(C)CC(O)(Cc1cc2nc(C(C)C)ncc2[nH]1)C(F)(F)F (centres unmarked) [1,1,1-Trifluoro-4-(5-fluoro-2-methoxyphenyl)-2-(2-isopropyl-5H-pyrrolo[3,2-d]pyrimidin-6-ylmethyl)-4-methylpentan-2-ol] | potent agonists
Cc1ccc(F)cc1C(C)(C)CC(O)(Cn1ccc2c1CCCC2=O)C(F)(F)F (centres unmarked) [1-[4-(5-Fluoro-2-methylphenyl)-2-hydroxy-4-methyl-2-trifluoromethylpentyl]-1,5,6,7-tetrahydroindol-4-one] | agonists
CC(C)c1ncc2[nH]c(CC(O)(CC(C)(C)c3cc(Cl)cc4c3OCC4)C(F)(F)F)cc2n1 (centres unmarked) [4-(5-Chloro-2,3-dihydrobenzofuran-7-yl)-1,1,1-trifluoro-2-(2-isopropyl-5H-pyrrolo[3,2-d]pyrimidin-6-ylmethyl)-4-methylpentan-2-ol] | potent agonists
CN1C=CC2=CC(CC(O)(CC(C)(C)c3cc(Cl)cc4c3OCC4)C(F)(F)F)NC2=C1 (centres unmarked) [4-(5-Chloro-2,3-dihydrobenzofuran-7-yl)-1,1,1-trifluoro-4-methyl-2-(6-methyl-1H-pyrrolo[2,3-c]pyridin-2-ylmethyl)pentan-2-ol] | potent agonists
CN(C)c1cc2cc(CC(O)(CC(C)(C)c3ccccc3)C(F)(F)F)[nH]c2cn1 (centres unmarked) [2-(5-Dimethylamino-1H-pyrrolo[2,3-c]pyridin-2-ylmethyl)-1,1,1-trifluoro-4-methyl-4-phenylpentan-2-ol] | potent agonists
COc1ccc(F)cc1C(C)(C)CC(O)(Cc1cc2ccncc2[nH]1)C(C)(C)C (centres unmarked) [5-(5-Fluoro-2-methoxyphenyl)-2,2,5-trimethyl-3-(1H-pyrrolo[2,3-c]pyridin-2-ylmethyl)hexan-3-ol] | agonists
CC(C)(CC(O)(Cc1cc2cc(N3CCCCC3)ncc2[nH]1)C(F)(F)F)c1cccc(F)c1 (centres unmarked) [1,1,1-Trifluoro-4-(3-fluorophenyl)-4-methyl-2-(5-piperidin-1-yl-1H-pyrrolo[2,3-c]pyridin-2-ylmethyl)pentan-2-ol] | potent agonists
